Measurements taken from patent US20260207602A1, “EGFR INHIBITORS” (Blueprint Medicines Corporation, priority 2022, published 2026).

Columns and labels:
EGFR (d746-750) = molecular target: T1, EGFR (d746-750) (Homo sapiens, UniProt P00533, DEL746-750); assay: Biochemical EGFR inhibition assay (Caliper mobility shift), EGFR (d746-750); conditions: biochemical Caliper mobility shift assay, EGFR Exon 19-del enzyme; read-out: Enz EGFR Exon 19-del IC50
T1 construct: purchased SignalChem E10-122JG
In short: (§1)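 Compounds were titrated against enzyme phosphorylating a 5-FAM peptide (2.5 µM) in 100 mM HEPES, pH 7.5, 10 mM MgCl2, 1 mM DTT. ATP was held at 1.0 mM or at Km, and reactions ran at 25 °C until 10–20% conversion before EDTA quench. Apparent IC50 values come from percent activity plotted against log concentration.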

EGFR L858R = molecular target: T2, EGFR L858R (Homo sapiens, UniProt P00533, L858R); assay: Biochemical EGFR inhibition assay (Caliper mobility shift), EGFR L858R; conditions: biochemical Caliper mobility shift assay, EGFR L858R enzyme; read-out: Enz EGFR L858R IC50
T2 construct: purchased SignalChem E10-122BG
T2 sequence (P00533 25-1210 L858R): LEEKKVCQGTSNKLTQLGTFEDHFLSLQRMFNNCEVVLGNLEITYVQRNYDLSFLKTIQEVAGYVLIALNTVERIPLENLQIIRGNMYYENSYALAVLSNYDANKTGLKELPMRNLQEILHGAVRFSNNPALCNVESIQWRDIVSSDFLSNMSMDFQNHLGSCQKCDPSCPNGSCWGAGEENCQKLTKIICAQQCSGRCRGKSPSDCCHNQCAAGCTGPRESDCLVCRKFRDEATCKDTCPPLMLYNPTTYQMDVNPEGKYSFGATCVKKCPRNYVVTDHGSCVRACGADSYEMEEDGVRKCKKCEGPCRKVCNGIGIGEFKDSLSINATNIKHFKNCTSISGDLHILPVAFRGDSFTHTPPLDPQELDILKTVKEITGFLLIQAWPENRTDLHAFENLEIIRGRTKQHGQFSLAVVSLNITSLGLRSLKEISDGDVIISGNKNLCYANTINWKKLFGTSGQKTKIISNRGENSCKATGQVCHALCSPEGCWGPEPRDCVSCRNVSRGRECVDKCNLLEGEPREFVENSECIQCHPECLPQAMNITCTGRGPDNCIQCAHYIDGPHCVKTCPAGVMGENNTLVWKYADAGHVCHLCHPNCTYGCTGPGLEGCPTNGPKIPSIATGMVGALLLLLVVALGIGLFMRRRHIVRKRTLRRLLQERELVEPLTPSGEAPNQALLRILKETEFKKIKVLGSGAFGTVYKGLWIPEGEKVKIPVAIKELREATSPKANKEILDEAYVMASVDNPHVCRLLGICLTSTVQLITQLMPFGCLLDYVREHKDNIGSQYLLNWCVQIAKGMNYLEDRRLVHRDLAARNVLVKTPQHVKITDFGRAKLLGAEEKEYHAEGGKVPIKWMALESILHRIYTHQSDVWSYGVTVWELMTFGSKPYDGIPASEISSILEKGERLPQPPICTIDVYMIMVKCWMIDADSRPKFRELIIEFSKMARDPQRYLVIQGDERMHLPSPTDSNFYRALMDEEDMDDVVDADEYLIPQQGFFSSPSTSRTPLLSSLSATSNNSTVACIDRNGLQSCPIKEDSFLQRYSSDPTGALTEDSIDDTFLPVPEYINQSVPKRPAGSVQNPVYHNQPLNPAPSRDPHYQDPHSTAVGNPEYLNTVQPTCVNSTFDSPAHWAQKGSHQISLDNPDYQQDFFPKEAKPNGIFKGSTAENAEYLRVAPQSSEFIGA
In short: as §1

[1] = molecular target: intracellular phosphorylation of EGFR (Tyr1068) in PC-9 cells (Homo sapiens, UniProt P00533, DEL746-750); assay: PC-9 pEGFR AlphaLISA assay; assay type: cell-based; conditions: 4 hours incubation, read-out: Phos EGFR PC9 IC50
Sequence of intracellular phosphorylation of EGFR (Tyr1068) in PC-9 cells (P00533 with tags, fused parts or gaps DEL746-750): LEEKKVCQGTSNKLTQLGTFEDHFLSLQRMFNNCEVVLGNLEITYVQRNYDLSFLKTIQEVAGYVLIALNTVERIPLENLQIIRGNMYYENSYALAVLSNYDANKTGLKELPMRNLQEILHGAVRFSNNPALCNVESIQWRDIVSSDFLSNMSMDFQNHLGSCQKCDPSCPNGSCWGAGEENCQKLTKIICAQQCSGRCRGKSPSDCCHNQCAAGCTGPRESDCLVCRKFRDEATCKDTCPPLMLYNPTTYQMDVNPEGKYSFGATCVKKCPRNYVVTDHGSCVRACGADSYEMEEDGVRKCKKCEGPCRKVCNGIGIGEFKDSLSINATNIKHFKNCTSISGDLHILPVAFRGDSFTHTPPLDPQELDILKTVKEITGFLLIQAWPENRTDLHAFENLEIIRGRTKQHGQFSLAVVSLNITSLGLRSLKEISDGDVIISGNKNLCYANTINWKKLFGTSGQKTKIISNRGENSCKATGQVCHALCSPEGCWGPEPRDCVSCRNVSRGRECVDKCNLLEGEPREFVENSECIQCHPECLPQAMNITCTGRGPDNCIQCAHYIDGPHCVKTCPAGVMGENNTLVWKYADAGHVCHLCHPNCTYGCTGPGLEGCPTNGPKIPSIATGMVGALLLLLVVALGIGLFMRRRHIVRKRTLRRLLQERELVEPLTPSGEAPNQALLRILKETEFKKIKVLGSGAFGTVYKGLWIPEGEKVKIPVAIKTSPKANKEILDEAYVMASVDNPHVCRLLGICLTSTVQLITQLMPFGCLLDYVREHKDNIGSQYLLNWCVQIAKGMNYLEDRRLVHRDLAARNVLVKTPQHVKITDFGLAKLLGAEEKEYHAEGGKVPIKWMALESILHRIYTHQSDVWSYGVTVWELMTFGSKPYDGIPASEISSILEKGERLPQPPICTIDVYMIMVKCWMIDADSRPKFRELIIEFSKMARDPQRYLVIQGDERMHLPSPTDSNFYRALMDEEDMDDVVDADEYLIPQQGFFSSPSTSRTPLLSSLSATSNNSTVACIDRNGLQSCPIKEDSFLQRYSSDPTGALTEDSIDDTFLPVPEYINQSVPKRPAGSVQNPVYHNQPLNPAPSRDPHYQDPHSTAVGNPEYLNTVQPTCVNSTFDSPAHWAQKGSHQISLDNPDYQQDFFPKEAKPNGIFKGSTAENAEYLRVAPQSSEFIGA
In short: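 PC-9 cells (EGFR del746-750) in phenol-free DMEM/10% FBS, adhered overnight, then exposed to 10-point 4-fold compound dilutions for 4 h at 37 °C. Lysates assayed for pEGFR Tyr1068 by AlphaLISA SureFire Ultra; IC50 from percent pEGFR inhibition vs log concentration.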

T1 sequence (P00533 with tags, fused parts or gaps DEL746-750 limits assumed): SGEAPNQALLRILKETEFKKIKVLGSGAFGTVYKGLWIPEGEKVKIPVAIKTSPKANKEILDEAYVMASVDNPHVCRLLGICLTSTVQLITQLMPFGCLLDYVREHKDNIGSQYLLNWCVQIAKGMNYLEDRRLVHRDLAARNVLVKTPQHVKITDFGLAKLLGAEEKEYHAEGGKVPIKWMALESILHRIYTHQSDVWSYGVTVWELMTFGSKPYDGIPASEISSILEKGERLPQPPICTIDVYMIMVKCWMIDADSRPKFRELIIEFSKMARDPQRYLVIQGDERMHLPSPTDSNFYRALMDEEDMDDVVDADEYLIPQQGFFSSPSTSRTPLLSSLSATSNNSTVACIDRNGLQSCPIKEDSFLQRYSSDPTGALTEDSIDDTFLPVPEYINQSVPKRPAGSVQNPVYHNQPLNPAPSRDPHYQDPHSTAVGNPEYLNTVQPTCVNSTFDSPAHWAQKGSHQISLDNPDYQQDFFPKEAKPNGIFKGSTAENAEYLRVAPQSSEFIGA

| SMILES | IC50 (EGFR (d746-750)) | IC50 (EGFR L858R) | IC50 [1] |
| --- | --- | --- | --- |
| COc1cc2ncnc(Nc3ccc4ncsc4c3)c2cc1NC(=O)N1C[C@H]2CCN(C)[C@H]2C1 [Example 251, (3aR,6aR)-N-(4-(benzo[d]thiazol-6-ylamino)-7-methoxyquinazolin-6-yl)-1-methylhexahydropyrrolo[3,4-b]pyrrole-5(1H)-carboxamide] | ≤ 10 nM | ≤ 10 nM | 10.1 to 50 nM |
| CN1CC[C@@H]2CN(C(=O)Nc3cc4c(Nc5ccc6ncsc6c5)ncnc4cc3-c3ccn(C)n3)C[C@@H]21 [Example 252, (3aR,6aR)-N-(4-(benzo[d]thiazol-6-ylamino)-7-(1-methyl-1H-pyrazol-3-yl)quinazolin-6-yl)-1-methylhexahydropyrrolo[3,4-b]pyrrole-5(1H)-carboxamide] | ≤ 10 nM | ≤ 10 nM | ≤ 10 nM |
| CCN1CCN(C(=O)Nc2cc3c(Nc4ccc5ncsc5c4)ncnc3cc2-c2ccn(C)n2)CC1 [Example 253, N-(4-(benzo[d]thiazol-6-ylamino)-7-(1-methyl-1H-pyrazol-3-yl)quinazolin-6-yl)-4-ethylpiperazine-1-carboxamide] | ≤ 10 nM | ≤ 10 nM | ≤ 10 nM |
| CN1CCC(Nc2cc3c(Nc4ccc5ncsc5c4)ncnc3cc2-c2ccn(C)n2)CC1 [Example 258, N4-(benzo[d]thiazol-6-yl)-7-(1-methyl-1H-pyrazol-3-yl)-N6-(1-methylpiperidin-4-yl)quinazoline-4,6-diamine] | ≤ 10 nM | ≤ 10 nM | ≤ 10 nM |
| Cn1cc(-c2cc3ncnc(Nc4ccc5ncsc5c4F)c3cc2OC2CCOCC2)cn1 [Example 262, 7-fluoro-N-(7-(1-methyl-1H-pyrazol-4-yl)-6-((tetrahydro-2H-pyran-4-yl)oxy)quinazolin-4-yl)benzo[d]thiazol-6-amine] | ≤ 10 nM | ≤ 10 nM | ≤ 10 nM |
| COc1cc2c(Nc3ccc4ncsc4c3)ncnc2cc1-c1cnn(C)c1 [Example 263, N-(6-methoxy-7-(1-methyl-1H-pyrazol-4-yl)quinazolin-4-yl)benzo[d]thiazol-6-amine] | ≤ 10 nM | ≤ 10 nM | ≤ 10 nM |
| Cn1cc(-c2cc(OCC(=O)N3CC4(COC4)C3)c3c(Nc4ccc5ncsc5c4)ncnc3c2)cn1 [Example 270, 2-((4-(benzo[d]thiazol-6-ylamino)-7-(1-methyl-1H-pyrazol-4-yl)quinazolin-5-yl)oxy)-1-(2-oxa-6-azaspiro[3.3]heptan-6-yl)ethan-1-one] | ≤ 10 nM | ≤ 10 nM | 10.1 to 50 nM |
| CN(C)C(=O)COc1cc(-c2cnn(C)c2)cc2ncnc(Nc3ccc4ncsc4c3F)c12 [Example 274, 2-((4-((7-fluorobenzo[d]thiazol-6-yl)amino)-7-(1-methyl-1H-pyrazol-4-yl)quinazolin-5-yl)oxy)-N,N-dimethylacetamide] | ≤ 10 nM | ≤ 10 nM | ≤ 10 nM |
| Cn1cc(-c2cc(OCC(=O)N3CCOCC3)c3c(Nc4ccc5ncsc5c4F)ncnc3c2)cn1 [Example 276, 2-((4-((7-fluorobenzo[d]thiazol-6-yl)amino)-7-(1-methyl-1H-pyrazol-4-yl)quinazolin-5-yl)oxy)-1-morpholinoethan-1-one] | ≤ 10 nM | ≤ 10 nM | ≤ 10 nM |
| Cn1cc(-c2cc(OCC(=O)N3CC4(COC4)C3)c3c(Nc4ccc5ncsc5c4F)ncnc3c2)cn1 [Example 277, 2-((4-((7-fluorobenzo[d]thiazol-6-yl)amino)-7-(1-methyl-1H-pyrazol-4-yl)quinazolin-5-yl)oxy)-1-(2-oxa-6-azaspiro[3.3]heptan-6-yl)ethan-1-one] | ≤ 10 nM | ≤ 10 nM | ≤ 10 nM |
| CC(Oc1cc(-c2cnn(C)c2)cc2ncnc(Nc3ccc4ncsc4c3F)c12)C(=O)N(C)C (stereo not drawn) [Example 278, 2-((4-((7-fluorobenzo[d]thiazol-6-yl)amino)-7-(1-methyl-1H-pyrazol-4-yl)quinazolin-5-yl)oxy)-N,N-dimethylpropanamide] | ≤ 10 nM | ≤ 10 nM | ≤ 10 nM |
| CC(Oc1cc(-c2cnn(C)c2)cc2ncnc(Nc3ccc4ncsc4c3F)c12)C(=O)N1CCOCC1 (stereo not drawn) [Example 281, 2-((4-((7-fluorobenzo[d]thiazol-6-yl)amino)-7-(1-methyl-1H-pyrazol-4-yl)quinazolin-5-yl)oxy)-1-morpholinopropan-1-one] | ≤ 10 nM | ≤ 10 nM | ≤ 10 nM |

Further lines, results first:

| IC50 (EGFR (d746-750)) | IC50 (EGFR L858R) | IC50 [1] | SMILES |
| --- | --- | --- | --- |
| ≤ 10 nM | ≤ 10 nM | 10.1 to 50 nM | CN1CCC[C@H](Oc2cc(-c3cn(C)n(C(F)F)c3=O)cc3ncnc(Nc4ccc5ncsc5c4)c23)C1 [Example 249, (S)-4-(4-(benzo[d]thiazol-6-ylamino)-5-((1-methylpiperidin-3-yl)oxy)quinazolin-7-yl)-2-(difluoromethyl)-1-methyl-1,2-dihydro-3H-pyrazol-3-one] |
| ≤ 10 nM | ≤ 10 nM | 10.1 to 50 nM | Cn1cc(-c2cc(OC3COC3)c3c(Nc4ccc5ncsc5c4)ncnc3c2)c(OC(F)F)n1 [Example 250, N-(7-(3-(difluoromethoxy)-1-methyl-1H-pyrazol-4-yl)-5-(oxetan-3-yloxy)quinazolin-4-yl)benzo[d]thiazol-6-amine] |
| ≤ 10 nM | ≤ 10 nM | 10.1 to 50 nM | CC(C)Oc1cc(-c2cnn(C)c2)cc2ncnc(Nc3ccc4scnc4c3)c12 [Example 254, N-(5-isopropoxy-7-(1-methyl-1H-pyrazol-4-yl)quinazolin-4-yl)benzo[d]thiazol-5-amine] |
| ≤ 10 nM | ≤ 10 nM | ≤ 10 nM | C[C@@H]1CN(C)CCN1C(=O)Nc1cc2c(Nc3ccc4ncsc4c3)ncnc2cc1-c1ccn(C)n1 [Example 255, (R)-N-(4-(benzo[d]thiazol-6-ylamino)-7-(1-methyl-1H-pyrazol-3-yl)quinazolin-6-yl)-2,4-dimethylpiperazine-1-carboxamide] |
| ≤ 10 nM | ≤ 10 nM | ≤ 10 nM | CCC(=O)N1CCC(Nc2cc3c(Nc4ccc5ncsc5c4)ncnc3cc2-c2ccn(C)n2)CC1 [Example 257, 1-(4-((4-(benzo[d]thiazol-6-ylamino)-7-(1-methyl-1H-pyrazol-3-yl)quinazolin-6-yl)amino)piperidin-1-yl)propan-1-one] |
| ≤ 10 nM | ≤ 10 nM | ≤ 10 nM | Cn1cc(-c2cc(OC3CC3)c3c(Nc4ccc5ncsc5c4)ncnc3c2)cn1 [Example 259, N-(5-cyclopropoxy-7-(1-methyl-1H-pyrazol-4-yl)quinazolin-4-yl)benzo[d]thiazol-6-amine] |
| ≤ 10 nM | ≤ 10 nM | 10.1 to 50 nM | CCC(=O)N1CCC(Oc2cc3c(Nc4ccc5ncsc5c4)ncnc3cc2OC)CC1 [Example 260, 1-(4-((4-(benzo[d]thiazol-6-ylamino)-7-methoxyquinazolin-6-yl)oxy)piperidin-1-yl)propan-1-one] |
| ≤ 10 nM | ≤ 10 nM | ≤ 10 nM | Cn1cc(-c2cc3ncnc(Nc4ccc5ncsc5c4F)c3cc2OC2CCOC2)cn1 (stereo not drawn) [Example 261, 7-fluoro-N-(7-(1-methyl-1H-pyrazol-4-yl)-6-((tetrahydrofuran-3-yl)oxy)quinazolin-4-yl)benzo[d]thiazol-6-amine] |
| ≤ 10 nM | ≤ 10 nM | 10.1 to 50 nM | COc1cc2c(Nc3ccc4ncsc4c3F)ncnc2cc1-c1cn(C)nc1OC [Example 264, 7-fluoro-N-(6-methoxy-7-(3-methoxy-1-methyl-1H-pyrazol-4-yl)quinazolin-4-yl)benzo[d]thiazol-6-amine] |
| ≤ 10 nM | ≤ 10 nM | 10.1 to 50 nM | Cn1ccc(-c2cc3ncnc(Nc4ccc5ncsc5c4)c3cc2NC2CCNCC2)n1 [Example 266, N4-(benzo[d]thiazol-6-yl)-7-(1-methyl-1H-pyrazol-3-yl)-N6-(piperidin-4-yl)quinazoline-4,6-diamine] |
| ≤ 10 nM | ≤ 10 nM | 10.1 to 50 nM | Cn1cc(-c2cc(OCC(=O)N3CCC3)c3c(Nc4ccc5ncsc5c4)ncnc3c2)cn1 [Example 271, 1-(azetidin-1-yl)-2-((4-(benzo[d]thiazol-6-ylamino)-7-(1-methyl-1H-pyrazol-4-yl)quinazolin-5-yl)oxy)ethan-1-one] |
| ≤ 10 nM | ≤ 10 nM | ≤ 10 nM | Cn1cc(-c2cc(OCC(=O)N3CCCCC3)c3c(Nc4ccc5ncsc5c4)ncnc3c2)cn1 [Example 272, 2-((4-(benzo[d]thiazol-6-ylamino)-7-(1-methyl-1H-pyrazol-4-yl)quinazolin-5-yl)oxy)-1-(piperidin-1-yl)ethan-1-one] |
| ≤ 10 nM | ≤ 10 nM | ≤ 10 nM | Cn1cc(-c2cc(OCC(=O)N3CCOCC3)c3c(Nc4ccc5ncsc5c4)ncnc3c2)cn1 [Example 273, 2-((4-(benzo[d]thiazol-6-ylamino)-7-(1-methyl-1H-pyrazol-4-yl)quinazolin-5-yl)oxy)-1-morpholinoethan-1-one] |
| ≤ 10 nM | ≤ 10 nM | 10.1 to 50 nM | CN1CCN(C(=O)COc2cc(-c3cnn(C)c3)cc3ncnc(Nc4ccc5ncsc5c4F)c23)CC1 [Example 275, 2-((4-((7-fluorobenzo[d]thiazol-6-yl)amino)-7-(1-methyl-1H-pyrazol-4-yl)quinazolin-5-yl)oxy)-1-(4-methylpiperazin-1-yl)ethan-1-one] |
